ChEMBL document CHEMBL1201862, “PubChem BioAssay data set” (2004)
The source made the active and inactive calls.

Tests used:
[1] = biological target: Luciferin 4-monooxygenase (Photinus pyralis, UniProt P08659); experiment: inhibition of purified Photinus pyralis luciferase – biochemical, luminescence, dose response (AID 1891)
[2] = Luminescence Cell-Based Dose Confirmation HTS to Identify Inhibitors of Platelet Dense Granule Release. [Related pubchem assays: 1663 (Primary HTS), 1678 (Summary of Project)]; format: functional
[3] = biological target: T1, Heat shock factor protein 1 (Mus musculus, UniProt P38532); experiment: enhancement of HSF1-driven luciferase signal – cell-based, NIH3T3, luminescence, dose retest, confirmation (AID 435004); format: functional;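 further: stress induced by proteasome inhibitor MG132 added 30 min after compound; luciferase reporter driven by HSF1 response element in NIH3T3 cells; actives raise luminescence as potentiators of the MG132 stress response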
T1 sequence (P38532 whole entry): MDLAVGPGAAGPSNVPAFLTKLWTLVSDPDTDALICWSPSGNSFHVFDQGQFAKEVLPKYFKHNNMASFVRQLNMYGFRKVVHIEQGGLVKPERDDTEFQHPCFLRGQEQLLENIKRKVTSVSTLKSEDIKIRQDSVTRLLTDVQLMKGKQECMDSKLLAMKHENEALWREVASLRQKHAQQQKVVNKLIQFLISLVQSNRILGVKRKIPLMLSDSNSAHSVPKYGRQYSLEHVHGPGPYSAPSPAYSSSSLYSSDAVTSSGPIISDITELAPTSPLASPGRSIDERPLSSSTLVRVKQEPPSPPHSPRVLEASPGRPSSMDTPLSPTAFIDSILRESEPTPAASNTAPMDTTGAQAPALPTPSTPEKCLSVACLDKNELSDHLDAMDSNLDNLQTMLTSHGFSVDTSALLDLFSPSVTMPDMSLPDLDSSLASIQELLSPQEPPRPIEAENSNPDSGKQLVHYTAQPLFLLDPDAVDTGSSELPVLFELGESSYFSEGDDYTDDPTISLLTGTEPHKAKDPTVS

Cytochrome P450 2C19 = Cytochrome P450 2C19 (Homo sapiens, UniProt P33261); experiment: Cytochrome panel assay with activity outcomes. Panel member name: p450-cyp2c19 Compounds with AC50 equal or less than 10 uM are considered active; format: functional; details: read-out: AC50
Chain of Cytochrome P450 2C19 (P33261 whole entry): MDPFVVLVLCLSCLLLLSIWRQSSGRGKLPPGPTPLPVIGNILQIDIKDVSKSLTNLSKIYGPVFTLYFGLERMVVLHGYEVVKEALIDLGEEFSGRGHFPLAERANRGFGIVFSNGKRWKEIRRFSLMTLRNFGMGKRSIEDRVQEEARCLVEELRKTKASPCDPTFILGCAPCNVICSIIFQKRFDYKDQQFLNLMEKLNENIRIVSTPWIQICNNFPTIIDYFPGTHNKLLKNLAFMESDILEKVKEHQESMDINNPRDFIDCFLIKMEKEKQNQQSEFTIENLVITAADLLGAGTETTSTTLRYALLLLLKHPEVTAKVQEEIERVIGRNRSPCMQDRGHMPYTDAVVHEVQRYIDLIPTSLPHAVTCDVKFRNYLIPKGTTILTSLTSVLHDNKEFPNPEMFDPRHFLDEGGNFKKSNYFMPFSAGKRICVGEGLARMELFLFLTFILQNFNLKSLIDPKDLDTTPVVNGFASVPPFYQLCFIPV

Cytochrome P450 2C9 = Cytochrome P450 2C9 (Homo sapiens, UniProt P11712)
Chain of Cytochrome P450 2C9 (P11712 whole entry): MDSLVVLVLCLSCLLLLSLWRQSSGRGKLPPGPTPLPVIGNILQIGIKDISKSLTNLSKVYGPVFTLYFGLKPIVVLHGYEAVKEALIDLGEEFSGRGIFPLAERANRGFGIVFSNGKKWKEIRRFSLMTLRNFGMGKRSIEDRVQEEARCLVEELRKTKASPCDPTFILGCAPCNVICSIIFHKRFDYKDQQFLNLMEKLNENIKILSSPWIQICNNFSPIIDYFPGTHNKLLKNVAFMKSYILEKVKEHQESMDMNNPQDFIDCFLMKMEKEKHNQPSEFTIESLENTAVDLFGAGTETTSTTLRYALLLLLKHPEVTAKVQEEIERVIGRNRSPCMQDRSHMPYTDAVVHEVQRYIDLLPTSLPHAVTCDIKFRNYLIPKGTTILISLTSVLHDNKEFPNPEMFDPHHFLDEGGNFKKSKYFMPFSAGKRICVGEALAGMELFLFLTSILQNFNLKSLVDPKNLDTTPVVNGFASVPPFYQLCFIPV

[4] = viability of PTEN-deleted HCT116 cells – cell-based, HCT116 PTEN knockout, dose response (AID 1047); format: functional;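 further: HCT116 colon tumor cells with PTEN knocked out; cells exposed to compound for 60 hours before readout; potency for loss of cell viability measured by luminescence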
INS1 = experiment: INS-1E survival protection against cytokine death – cell-based, luminescence, retest, dose response (AID 449756); format: functional; details: Rattus norvegicus;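 further: cell death triggered by IL-1 beta plus TNF-alpha plus IFN-gamma mixture; protective hits raise ATP signal compared with cytokine alone wells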
Cytochrome P450 2D6 = Cytochrome P450 2D6 (Homo sapiens, UniProt P10635);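 further: CYP2D6 member of a cytochrome P450 panel assay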
Chain of Cytochrome P450 2D6 (P10635 whole entry): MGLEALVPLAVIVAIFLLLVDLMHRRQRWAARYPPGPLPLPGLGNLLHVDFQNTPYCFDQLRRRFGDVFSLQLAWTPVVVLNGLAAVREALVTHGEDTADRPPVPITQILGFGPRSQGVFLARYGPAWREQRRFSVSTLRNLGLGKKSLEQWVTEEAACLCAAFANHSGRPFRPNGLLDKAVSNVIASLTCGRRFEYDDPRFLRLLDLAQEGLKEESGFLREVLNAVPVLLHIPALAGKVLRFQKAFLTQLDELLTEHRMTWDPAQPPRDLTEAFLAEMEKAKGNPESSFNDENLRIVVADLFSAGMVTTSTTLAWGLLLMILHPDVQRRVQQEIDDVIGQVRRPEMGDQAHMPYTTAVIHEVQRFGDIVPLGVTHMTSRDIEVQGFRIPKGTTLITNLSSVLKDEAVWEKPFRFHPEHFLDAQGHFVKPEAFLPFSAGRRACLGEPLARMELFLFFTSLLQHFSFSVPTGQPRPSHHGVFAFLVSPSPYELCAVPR

Paired box protein Pax-8 = Paired box protein Pax-8 (Homo sapiens, UniProt Q06710); experiment: PAX8 transcriptional activity inhibition in RMG-I – RMG-I cells, luciferase, cherry-pick, dose response (AID 687027); format: functional, cell-based;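 further: luciferase reporter driven by Pax8 target thyroperoxidase promoter measured by SteadyGlo luminescence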
Chain of Paired box protein Pax-8 (Q06710 whole entry): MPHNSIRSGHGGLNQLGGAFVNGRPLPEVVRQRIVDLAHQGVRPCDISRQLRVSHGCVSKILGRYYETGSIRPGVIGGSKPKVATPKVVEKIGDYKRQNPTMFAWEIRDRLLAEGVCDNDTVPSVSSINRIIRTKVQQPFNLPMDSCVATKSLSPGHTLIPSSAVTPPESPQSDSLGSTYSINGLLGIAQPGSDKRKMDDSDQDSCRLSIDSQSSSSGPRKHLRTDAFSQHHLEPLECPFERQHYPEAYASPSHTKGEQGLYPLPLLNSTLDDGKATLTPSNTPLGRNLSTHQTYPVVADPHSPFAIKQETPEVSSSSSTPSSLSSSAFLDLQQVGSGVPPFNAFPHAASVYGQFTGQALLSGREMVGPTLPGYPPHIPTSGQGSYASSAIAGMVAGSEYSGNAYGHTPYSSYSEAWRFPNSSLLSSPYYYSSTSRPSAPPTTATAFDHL

Coagulation factor XII = biological target: T2, Coagulation factor XII (Homo sapiens, UniProt P00748); format: functional;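 further: activated factor XIIa alpha cleaving a fluorogenic AMC peptide substrate; inhibitor potency from loss of enzyme activity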
T2 sequence (P00748 whole entry): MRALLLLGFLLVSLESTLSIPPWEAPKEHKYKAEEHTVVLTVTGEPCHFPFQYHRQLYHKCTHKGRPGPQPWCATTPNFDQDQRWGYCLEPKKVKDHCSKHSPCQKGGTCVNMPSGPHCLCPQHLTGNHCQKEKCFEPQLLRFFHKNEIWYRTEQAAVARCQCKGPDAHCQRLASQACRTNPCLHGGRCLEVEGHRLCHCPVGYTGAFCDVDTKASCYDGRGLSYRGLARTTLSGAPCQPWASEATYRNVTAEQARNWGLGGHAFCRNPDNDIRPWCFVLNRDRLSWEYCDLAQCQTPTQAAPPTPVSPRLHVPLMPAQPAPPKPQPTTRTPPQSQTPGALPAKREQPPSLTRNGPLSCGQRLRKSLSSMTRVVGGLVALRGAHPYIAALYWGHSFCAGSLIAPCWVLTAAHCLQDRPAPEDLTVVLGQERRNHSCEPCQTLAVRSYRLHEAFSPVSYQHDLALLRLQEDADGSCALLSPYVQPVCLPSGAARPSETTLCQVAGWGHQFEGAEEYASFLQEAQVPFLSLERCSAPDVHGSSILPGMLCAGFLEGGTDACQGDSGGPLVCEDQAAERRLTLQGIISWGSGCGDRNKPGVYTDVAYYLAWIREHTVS

[5] = biological target: T3, Replicative DNA helicase DnaB (Mycobacterium tuberculosis, UniProt P9WMR3); experiment: DnaB intein splicing inhibitors, dose response, biochemical, cell-free fluorescence (AID 449749); format: functional
T3 sequence (P9WMR3 whole entry): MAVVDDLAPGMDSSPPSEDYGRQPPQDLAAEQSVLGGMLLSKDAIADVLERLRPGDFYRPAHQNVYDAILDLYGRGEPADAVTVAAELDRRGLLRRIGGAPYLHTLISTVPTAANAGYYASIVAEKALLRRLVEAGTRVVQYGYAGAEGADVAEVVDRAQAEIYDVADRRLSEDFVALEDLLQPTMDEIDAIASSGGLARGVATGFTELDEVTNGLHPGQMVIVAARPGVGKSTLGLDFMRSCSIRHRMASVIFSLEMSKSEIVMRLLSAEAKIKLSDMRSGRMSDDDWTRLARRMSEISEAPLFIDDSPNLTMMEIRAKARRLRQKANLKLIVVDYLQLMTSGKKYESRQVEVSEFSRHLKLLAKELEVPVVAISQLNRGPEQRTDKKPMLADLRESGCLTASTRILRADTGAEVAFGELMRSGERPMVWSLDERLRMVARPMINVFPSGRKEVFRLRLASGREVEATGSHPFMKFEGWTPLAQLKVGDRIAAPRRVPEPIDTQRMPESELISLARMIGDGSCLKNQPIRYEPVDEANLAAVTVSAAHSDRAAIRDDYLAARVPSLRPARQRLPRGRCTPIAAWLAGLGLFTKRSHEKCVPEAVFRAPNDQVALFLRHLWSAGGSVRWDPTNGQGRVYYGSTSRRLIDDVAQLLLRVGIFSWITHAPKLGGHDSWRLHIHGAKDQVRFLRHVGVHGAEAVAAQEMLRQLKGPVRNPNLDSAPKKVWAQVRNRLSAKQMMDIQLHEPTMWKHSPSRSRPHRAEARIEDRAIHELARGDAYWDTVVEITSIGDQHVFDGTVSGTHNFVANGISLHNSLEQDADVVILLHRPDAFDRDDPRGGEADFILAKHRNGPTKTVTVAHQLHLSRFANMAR

Protein RecA = biological target: T4, Protein RecA (Mycobacterium tuberculosis, UniProt P9WHJ3); experiment: Fluorescence Cell-Free Homogeneous Dose Retest to Identify Inhibitors of RecA-Intein Splicing Activity. [Related pubchem assays (depositor defined):AID2097, AID2223, AID489010, AID492950]; format: functional
T4 sequence (P9WHJ3 whole entry): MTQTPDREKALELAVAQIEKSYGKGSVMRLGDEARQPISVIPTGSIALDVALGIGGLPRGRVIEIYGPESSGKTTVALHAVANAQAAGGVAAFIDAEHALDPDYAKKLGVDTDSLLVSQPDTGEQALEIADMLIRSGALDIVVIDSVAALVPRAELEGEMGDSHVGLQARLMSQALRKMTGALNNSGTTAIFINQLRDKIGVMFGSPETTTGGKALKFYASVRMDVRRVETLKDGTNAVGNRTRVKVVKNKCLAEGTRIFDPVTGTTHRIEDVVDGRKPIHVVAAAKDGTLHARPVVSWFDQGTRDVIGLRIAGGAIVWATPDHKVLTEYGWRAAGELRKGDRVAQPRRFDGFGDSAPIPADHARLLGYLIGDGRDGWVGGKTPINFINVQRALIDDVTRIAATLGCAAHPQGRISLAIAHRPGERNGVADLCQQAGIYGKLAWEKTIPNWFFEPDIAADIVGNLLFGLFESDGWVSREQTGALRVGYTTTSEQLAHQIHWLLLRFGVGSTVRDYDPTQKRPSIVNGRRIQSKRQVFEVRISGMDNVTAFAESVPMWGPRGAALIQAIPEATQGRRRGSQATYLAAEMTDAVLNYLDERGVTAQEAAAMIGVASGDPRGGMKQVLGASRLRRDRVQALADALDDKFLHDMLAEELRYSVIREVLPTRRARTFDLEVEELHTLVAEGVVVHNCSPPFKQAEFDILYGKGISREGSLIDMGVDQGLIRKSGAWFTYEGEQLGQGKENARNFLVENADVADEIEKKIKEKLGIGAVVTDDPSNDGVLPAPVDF

Cytochrome P450 3A4 = Cytochrome P450 3A4 (Homo sapiens, UniProt P08684);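 further: CYP3A4 tested as one member of a cytochrome P450 panel screen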
Chain of Cytochrome P450 3A4 (P08684 whole entry): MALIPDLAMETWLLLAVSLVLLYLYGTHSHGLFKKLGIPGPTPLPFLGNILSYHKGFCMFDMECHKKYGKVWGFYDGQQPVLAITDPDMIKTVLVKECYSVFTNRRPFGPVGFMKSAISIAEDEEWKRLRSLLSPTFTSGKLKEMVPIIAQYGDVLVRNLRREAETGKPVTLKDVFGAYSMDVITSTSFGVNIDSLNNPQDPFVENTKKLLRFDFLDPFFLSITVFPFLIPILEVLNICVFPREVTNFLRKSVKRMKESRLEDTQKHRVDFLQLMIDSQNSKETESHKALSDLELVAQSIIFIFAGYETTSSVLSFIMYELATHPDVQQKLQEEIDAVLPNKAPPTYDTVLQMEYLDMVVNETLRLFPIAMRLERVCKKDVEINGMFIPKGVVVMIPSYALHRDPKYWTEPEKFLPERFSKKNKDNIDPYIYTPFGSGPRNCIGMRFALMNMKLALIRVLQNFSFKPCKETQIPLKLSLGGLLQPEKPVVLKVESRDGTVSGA

Chain of Luciferin 4-monooxygenase (P08659 whole entry): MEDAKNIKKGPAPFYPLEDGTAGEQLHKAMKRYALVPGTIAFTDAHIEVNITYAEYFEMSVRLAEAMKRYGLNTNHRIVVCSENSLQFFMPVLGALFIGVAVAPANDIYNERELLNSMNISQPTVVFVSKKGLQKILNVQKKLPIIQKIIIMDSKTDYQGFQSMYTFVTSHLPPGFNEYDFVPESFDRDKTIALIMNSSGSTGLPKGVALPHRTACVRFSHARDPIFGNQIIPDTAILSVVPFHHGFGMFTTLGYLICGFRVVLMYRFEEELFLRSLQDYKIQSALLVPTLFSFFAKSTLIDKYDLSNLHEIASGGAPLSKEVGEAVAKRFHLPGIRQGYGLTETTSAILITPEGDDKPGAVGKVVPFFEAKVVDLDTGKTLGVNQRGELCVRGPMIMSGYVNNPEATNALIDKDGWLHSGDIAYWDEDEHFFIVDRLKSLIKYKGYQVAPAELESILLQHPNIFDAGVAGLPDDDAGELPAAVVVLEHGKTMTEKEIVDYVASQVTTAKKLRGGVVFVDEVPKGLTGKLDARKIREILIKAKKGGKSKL

## CCC1CCCN1Cn1cnc2c3cc(Cl)ccc3nc-2c1O (centres undefined)
[1]
  EC50: > 112 µM (not active)
[2]
  EC50: 48.3 µM (active)

## Cc1cc(C)c2cc(C(=O)N(C)C3CCN(C)CC3)[nH]c2c1
[3]
  EC50: > 260 µM (inactive)

## Cc1cc(C(=O)CC#N)c(C)n1CC(F)(F)F
Cytochrome P450 2C19
  AC50: 22.4 µM (inconclusive)
Cytochrome P450 2C9
  AC50: inconclusive

## CCOc1ccc(CCNC(=O)c2oc3c(c2C)-c2n[nH]cc2CC3)cc1OCC
[1]
  EC50: > 112 µM (not active)
[2]
  EC50: > 112 µM (not active)

## CC(C)CCCCCCN=C(S)Nc1ccc(S(=O)(=O)N2CCOCC2)cc1
[4]
  EC50: 77 µM (active)
INS1
  AC50: 7.7 µM (active)

## O=C(Nc1ccccc1C(=O)N/N=C/c1ccco1)c1ccc(F)cc1
[1]
  EC50: 0.295 µM (active)
[2]
  EC50: 10.4 µM (active)

## Cc1nonc1C(=O)N/N=C/c1cccc(O)c1
[1]
  EC50: 13.5 µM (active)
[2]
  EC50: 4.56 µM (active)

## C=CCOc1ccccc1OC[C@H](O)CNC(C)C [OXPRENOLOL]
Cytochrome P450 2D6
  AC50: 7.94 µM (inconclusive)
Cytochrome P450 2C9
  AC50: inconclusive

## COCCCN(C(=O)Cc1ccc(Cl)c(Cl)c1)c1c(N)n(Cc2ccccc2)c(=O)[nH]c1=O
[1]
  EC50: > 112 µM (not active)
[2]
  EC50: > 112 µM (not active)

## COCCNc1cc(-c2ccccc2CN(C)C)ncn1
Cytochrome P450 2D6
  AC50: 31.6 µM (inconclusive)
Cytochrome P450 2C9
  AC50: inconclusive

## Nc1ccccc1Oc1ncc(C(F)(F)F)cc1Cl
Cytochrome P450 2C9
  AC50: inconclusive

## C[C@H]1CCCCO[C@H](CN(C)C(=O)Nc2ccc(C(F)(F)F)cc2)[C@@H](C)CN([C@@H](C)CO)C(=O)c2cc(NC(=O)c3ccncc3)ccc2O1
Paired box protein Pax-8
  AC50: 17.1 µM (active)

## O=C(CF)NC(NC(S)=Nc1ccccc1O)C(Cl)(Cl)Cl (centres undefined)
[3]
  EC50: > 260 µM (inactive)

## Cc1nc(O)nc(O)c1/C=N/NC(=O)[C@@H](N)CC(C)C
Coagulation factor XII
  IC50: > 50 µM (inactive)

## CSc1nc(S(=O)(=O)c2ccc(C)cc2)c(Cl)s1
[3]
  EC50: > 260 µM (inactive)

## O=C(CS(=O)(=O)c1cn(Cc2ccc(Cl)cc2)c2ccccc12)N1CCOCC1
Coagulation factor XII
  IC50: > 50 µM (inactive)

## Cc1csc(NC(=O)C(CC(C)C)NS(=O)(=O)c2ccc3c(c2)oc(=O)n3C)n1 (centres undefined)
Coagulation factor XII
  IC50: > 50 µM (inactive)

## COc1ccc2c(c1)CCc1sc(NC(=O)c3ccc(C)cc3)nc1-2
Coagulation factor XII
  IC50: > 50 µM (inactive)

## NC(=O)c1c(N)sc2c1CCC2
Coagulation factor XII
  IC50: > 50 µM (inactive)

## Cc1ccc(C(=O)NCCNc2ccc(Cl)cc2[N+](=O)[O-])o1
Coagulation factor XII
  IC50: > 50 µM (inactive)
Cytochrome P450 2D6
  AC50: 20 µM (inconclusive)

## O=C(CSC1=NCCN1)Nc1cccc(C(F)(F)F)c1
[3]
  EC50: > 260 µM (inactive)

## Cc1nc(-c2ccc(Cl)cc2)sc1C(=O)CBr
[3]
  EC50: 70.2 µM (active)

## CCOC(=O)CC(NC(=O)C1c2ccccc2Oc2ccccc21)c1ccccc1Cl (centres undefined)
[3]
  EC50: > 260 µM (inactive)

## COc1ccccc1NC(=O)c1ccc(-n2cccn2)nc1
Cytochrome P450 2C19
  AC50: 25.1 µM (inconclusive)
Cytochrome P450 2C9
  AC50: inconclusive

## CCCc1noc2c1C(c1ccoc1)C(C#N)=C(N)N2 (centres undefined)
[1]
  EC50: > 112 µM (not active)
[2]
  EC50: > 112 µM (not active)
[5]
  AC50: 157 µM (active)
Protein RecA
  EC50: 1.06 µM (active)

## Cn1nnnc1SCCNC/C=C/c1ccccc1
[3]
  EC50: > 260 µM (inactive)

## Cc1ccc2c(c1)N(CCC(=O)NCC1CCCO1)C(=O)CO2 (centres undefined)
Cytochrome P450 3A4
  AC50: 25.1 µM (inconclusive)
Cytochrome P450 2C9
  AC50: inconclusive

## CN(C)c1ccc(-c2nc(N(C)C)c3ccccc3n2)cc1
Cytochrome P450 2C19
  AC50: 39.8 µM (inconclusive)
Cytochrome P450 2C9
  AC50: inconclusive

## O=C(CN(c1cccc([N+](=O)[O-])c1)S(=O)(=O)c1ccccc1)NCc1ccccc1
[1]
  EC50: > 112 µM (not active)
[2]
  EC50: 46.7 µM (active)

## CCN(C(=O)COC(=O)c1c2c(nc3ccccc13)/C(=C/c1ccccc1)CC(C)C2)C1CCS(=O)(=O)C1 (centres undefined)
[3]
  EC50: 14.3 µM (active)

## CC/C(=N\NC(=O)Nc1ccccc1)c1ccccc1
[1]
  EC50: > 112 µM (not active)
[2]
  EC50: > 112 µM (not active)
